What is called pIC50 is the negative decadic logarithm of the IC50, by convention in mol/L.

pIC50: −log10 of the molar value.

The values below come from patent US6803382B2, “Angiogenesis inhibitors and pharmaceutical and cosmetic use thereof” (Galderma Research & Development, S.N.C., priority 2001, dated 2004).

The target in one assay is T1, Human MetAP-2 (Homo sapiens, UniProt P50579).
T1 construct: made in house
As to the kind of experiment: Inhibition of human MetAP-2 (recombinant enzyme, Met-Ala-Ser substrate). The assay is classed as biochemical. Conditions: recombinant MetAP-2, substrate Met-Ala-Ser 1 mM, 37° C., Hepes pH 7.4, 0.5 mM CoCl2. As to the method:
By way of example, the biological activity of the compounds is evaluated by measuring their inhibitory activity on methionine aminopeptidase MetAP-2 (Li, X., Chang, Y-H. Biochem. Biophys. Res. Comm. 1996, 227, 152).
The biological activity is characterized in this system by determining the concentration of compound required to inhibit 50% of the enzymatic activity (IC50). The test protocol used is described in Example 13 of the present patent application.
a) Measurement of the Inhibition of Human MetAP-2
Recombinant MetAP-2 is obtained and purified according to the method described by Li and Chang (Li, X.; Chang, Y-H. Biochem. Biophys. Res. Comm. 1996, 227, 152).
The tests are carried out in buffer A (Hepes buffer, 10 mM, pH 7.4, 0.5 mM CoCl2 containing 10% glycerol) using the peptide Met-Ala-Ser as substrate (Km=0.7 mM).
a. The enzymatic activity is measured as follows: the substrate solution is added to a suitable amount of enzyme such that the final concentration is 1 mM, and the mixture is incubated at 37° C. for 10-30 minutes. The reaction is quenched by adding 100 mM EDTA solution or by heating in a boiling water bath for two minutes.
b. The N-terminal methionine released is quantified by measuring the absorbance at 450 nm (A450) by incubating for 30-60 minutes at 37° C. with the following coloured reagent: buffer B (Hepes buffer, 10 mM, pH 7.4) (Ben-Bassat A.; Bauer K.: Chang S. Y. et al., J. Bacteriol. 1987, 169, 751-757), containing 70 μg/mL of amino acid oxidase, 10 μg/mL of horseradish peroxidase and 1 mM of o-dianisidine. The activities are expressed as mmol of methionine produced, using the conversion factor of 1 mmol of methionine/mL=8.6A450
Determination of the IC50
The IC50 values are determined by incubating the enzyme and its substrate (using the experimental conditions described above) with increasing concentrations of inhibitor.
The control is 5-methoxy-4-[2-methyl-3-(3-methylbut-2-enyl)oxiranyl]-1-oxaspiro[2.5]octan-6-yl 4-methoxycinnamate described in the publication by Han et al., Bioorganic & Medicinal Chemistry Letters, 2000, 10, 39-43.

Assay [1] has as its system Endothelial Cells Isolated from the Vein of Umbilical Cords. As to the kind of experiment: Inhibition of endothelial cell proliferation by DNA synthesis reinitiation (b-Fgf, tritiated thymidine). The assay is classed as cell-based. The conditions noted are these: b-Fgf-stimulated tritiated thymidine incorporation, 24 h at 37° C., serum free medium, IC50 determined graphically. As to the method:
The anti-angiogenic activity of the compounds according to the invention may also be measured by means of their capacity to inhibit the proliferation of endothelial cells. This activity is determined in Example 13 of the present patent application.
b) Measurement of the Inhibition of the Proliferation in Endothelial Cells Isolated from the Vein of Umbilical Cords (Prepared at the Laboratory) by DNA Synthesis Reinitiation
The cells are seeded in complemented SFM medium (Gibco). When the cells reach the confluence, the growth is stopped by 2 washes in serum free medium and handing-over in serum free medium for 24 h. After trypsination, they are seeded in 48 wells plates: 50.000 cells per well in 500 μl.
The reinitiation of DNA synthesis is performed 6 hours after, in presence of 50 μg/ml b-Fgf by well with increasing amounts of inhibitor to be tested in the serum free medium and containing the tritiated thymidine (b-Fgf is prepared at the laboratory).
The cells are incubated 24 h at 37° C. and the radioactivity is measured with a Wallac counter. Each test is performed in duplicate and the result is the average of the counted number of cpms. The curve showing measured radioactivity function to increasing amount of inhibitors allows to determine graphically the value of IC50.

T1 sequence (P50579 whole entry): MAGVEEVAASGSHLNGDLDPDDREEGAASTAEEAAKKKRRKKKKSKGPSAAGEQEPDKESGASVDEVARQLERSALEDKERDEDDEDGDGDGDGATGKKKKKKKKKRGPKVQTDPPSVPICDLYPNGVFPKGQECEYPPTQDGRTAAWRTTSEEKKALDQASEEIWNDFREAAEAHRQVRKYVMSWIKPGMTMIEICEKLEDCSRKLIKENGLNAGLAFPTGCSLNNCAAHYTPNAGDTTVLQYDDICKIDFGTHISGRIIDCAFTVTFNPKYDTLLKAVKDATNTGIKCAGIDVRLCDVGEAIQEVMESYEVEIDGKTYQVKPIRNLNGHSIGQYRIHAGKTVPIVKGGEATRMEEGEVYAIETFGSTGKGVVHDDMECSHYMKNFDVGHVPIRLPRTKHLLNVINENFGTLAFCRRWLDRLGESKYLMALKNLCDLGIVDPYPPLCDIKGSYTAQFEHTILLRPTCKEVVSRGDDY

Regarding `COc1ccc(/C=C/C(=O)O[C@@H]2CC[C@]3(CO3)[C@@H](/C(C)=C/CCC(C)C)[C@@H]2OC)cc1` [Example 2], the pIC50 on Human MetAP-2 was 7.82; in assay [1] (Endothelial cell) it was 9.00.

On to `COc1ccc(C=CC(=O)OC2CCC3(CO3)C(C3(C)OC3CC=C(C)C)C2OC)cc1` (centres unmarked) [Control, 5-methoxy-4-[2-methyl-3-(3-methylbut-2-enyl)oxiranyl]-1-oxaspiro[2.5]octan-6-yl 4-methoxycinnamate], for which the pIC50 is 7.46 at Human MetAP-2 and 8.00 in assay [1].

In the case of `CO[C@@H]1[C@H](OC(=O)/C=C/C=C/C=C/C=C/C(=O)O)CC[C@]2(CO2)[C@H]1[C@@]1(C)O[C@@H]1CC=C(C)C` [Fumagillin], on Human MetAP-2, the pIC50 is 8.00.
